The record followed here is PubChem BioAssay AID504457 (Sanford-Burnham Center for Chemical Genomics, 2011).

In this assay the target is Type-1 angiotensin II receptor (Homo sapiens) (UniProt P30556). The experiment in a line: antagonism of AGTR1 beta-arrestin recruitment – cell-based, CHO-K1 AGTR1, luminescence, set 5, selectivity assay for APJ receptor antagonist project, SAR follow-up (AID 504457). The note with it: CHO-K1 AGTR1 PathHunter beta-arrestin. On the technique in general: Activated receptors often draw arrestin, which recruitment assays turn into a signal.
Chain of Type-1 angiotensin II receptor (Homo sapiens) (P30556 whole entry, looked up): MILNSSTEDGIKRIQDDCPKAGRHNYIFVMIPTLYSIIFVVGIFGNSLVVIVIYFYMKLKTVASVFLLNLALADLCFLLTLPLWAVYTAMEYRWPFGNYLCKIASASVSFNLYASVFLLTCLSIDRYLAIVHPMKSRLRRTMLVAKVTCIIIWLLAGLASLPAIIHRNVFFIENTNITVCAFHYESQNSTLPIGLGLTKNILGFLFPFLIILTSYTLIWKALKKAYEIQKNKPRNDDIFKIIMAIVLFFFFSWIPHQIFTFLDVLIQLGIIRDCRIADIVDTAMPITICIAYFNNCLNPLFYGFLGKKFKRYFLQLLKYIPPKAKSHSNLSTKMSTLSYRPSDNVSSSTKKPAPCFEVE

Calls of active or inactive are those of the source.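 How the source made its calls: active means compounds with IC50 below 20 µM; inactive means the rest.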

For `Cc1cc(C)nc(SCc2cc(=O)c(OC(=O)c3cc([N+](=O)[O-])ccc3Cl)co2)n1`, the IC50 result is “inactive”.
As to `Cc1cc(C)nc(SCc2cc(=O)c(O)co2)n1`, the IC50 is > 79 µM (inactive).
Consider `Cc1ccnc(SCc2cc(=O)c(OC(=O)c3ccc([N+](=O)[O-])cc3)co2)n1`, for which the IC50 was > 79 µM (inactive).
Regarding `N#Cc1ccc(C(=O)Oc2coc(CSc3ncccn3)cc2=O)cc1`, the IC50 is > 79 µM (inactive).
Regarding `O=c1cc(CSc2ncccn2)occ1O`, the IC50 was > 79 µM (inactive).
Regarding `Cc1ccnc(SCc2cc(=O)c(OC(=O)c3ccc(C#N)cc3)co2)n1`, the IC50 was > 79 µM (inactive).
`Cc1ccc(C(=O)Oc2coc(CSc3ncccn3)cc2=O)cc1[N+](=O)[O-]`: the IC50 was > 79 µM (inactive).
As for `C=CCOc1ccc(CSc2nc(C)cc(C)n2)cc1OC`, the IC50 is > 79 µM (inactive).
In the case of `COc1ccccc1NC(=O)CN1C(=O)C(=O)c2ccccc21`, the IC50 was > 79 µM (inactive).
As for `COc1cc(CSc2nc(C)cc(C)n2)ccc1O`, the IC50 was > 79 µM (inactive).
Consider `C=CCOc1ccc(COc2ccccc2)cc1`, for which the IC50 is > 79 µM (inactive).
For `CC(=O)Oc1cc2c(cc1Cl)C(c1ccccc1Cl)CC1(CC(C)(C)NC(=S)N1)O2` (centres undefined), the IC50 is > 79 µM (inactive).
Consider `Cc1ccnc(SCc2cc(=O)c(OC(=O)c3ccccc3)co2)n1`, for which the IC50 was > 79 µM (inactive).
For the compound `C=CCOc1ccc(CSc2nccc(C)n2)cc1`, the IC50 was > 79 µM (inactive).
As for `O=C(Oc1coc(CSc2ncccn2)cc1=O)c1ccc(Br)cc1`, the figure is > 79 µM (inactive); as for `Cc1ccccc1C1CC2(CC(C)(C)NC(=S)N2)Oc2cc(O)c(Cl)cc21` (centres undefined), “inactive”.
With `COc1ccc(C2CC3(CC(C)(C)NC(=S)N3)Oc3cc(OC(C)=O)cc(C)c32)cc1` (centres undefined) the figure was > 79 µM (inactive); with `COc1ccc(C2CC3(CC(C)(C)NC(=S)N3)Oc3cc(O)cc(C)c32)cc1` (centres undefined), > 79 µM (inactive); with `CC1(C)CC2(CC(c3ccc(F)cc3)c3ccc(O)cc3O2)NC(=S)N1` (centres undefined), “inactive”.

The IC50 is the concentration at which inhibition is half-maximal.
